Results reported in PubChem BioAssay AID2060883 (Molecular Pharmacology Branch, DTP, NCI, 2025).

Test system: 843782-103-R-J1-PDC complex spheroid viability
Experiment: Anticancer human tumor 843782-103-R-J1-PDC patient-derived lung adenocarcinoma cell line growth inhibition [RAS]
Conditions: for viability, T/C: stronger effect = lower value; active = viability on the fitted dose curve at most 10% of control; inactive = the rest
Outline: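 Tumour cells grown as complex spheroids with HUVEC endothelial cells and mesenchymal stem cells, treated with RAS pathway inhibitor combinations. Each agent spans half-log steps from near clinical Cmax, or 10 microM where Cmax is unknown.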
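Note: viability read after seven days of compound exposure.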

CC(C)n1nc(-c2ccc3oc(N)nc3c2)c2c(N)ncnc21
31.2 nM [middle of 4 runs]: IC50 (curve of compound)
inactive: viability, T/C (compound 0.000316 µM) 108% [middle of 4 runs] | viability, T/C (compound 0.001 µM) 94% [middle of 4 runs] | viability, T/C (compound 0.00316 µM) 91.6% [middle of 4 runs] | viability, T/C (compound 0.01 µM) 72.3% [middle of 4 runs] | viability, T/C (compound 0.0316 µM) 48.1% [middle of 4 runs] | viability, T/C (compound 0.1 µM) 28.8% [middle of 4 runs]
